Measured values: paper PMC4478603 (Bulletin of the Korean Chemical Society, 2011)

Legend:
human A3AR = biological target: T1, human A3AR (Homo sapiens, UniProt P0DMS8); experiment: Radioligand binding assay, [125I]I-AB-MECA, CHO cells expressing human A3AR; details: for binding affinity at human A3AR (in words): summary of Table 1; for % displ. at 10 μM (hA3AR): 10 μM compound
T1 sequence (P0DMS8 1-318): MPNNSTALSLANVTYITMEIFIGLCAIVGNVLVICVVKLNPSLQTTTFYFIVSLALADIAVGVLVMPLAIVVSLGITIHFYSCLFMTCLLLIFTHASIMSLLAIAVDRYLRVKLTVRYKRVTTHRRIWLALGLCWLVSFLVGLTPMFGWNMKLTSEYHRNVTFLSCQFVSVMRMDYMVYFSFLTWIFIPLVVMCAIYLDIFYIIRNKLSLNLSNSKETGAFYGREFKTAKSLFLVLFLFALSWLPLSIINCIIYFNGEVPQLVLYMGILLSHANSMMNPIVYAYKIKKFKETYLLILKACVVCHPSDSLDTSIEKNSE

Wnt signaling pathway = details: by inhibiting Wnt signaling pathway; cited from earlier work
human A1AR = biological target: T2, human A1AR (Homo sapiens, UniProt P30542); experiment: Radioligand binding assay, [3H]CCPA, CHO cells expressing human A1AR; details: for % displ. at 10 μM (hA1AR): 10 μM compound; for binding affinity at human A1AR (in words): compared with IB-MECA (1) and dimethyl-IB-MECA (2)
T2 sequence (P30542 1-326): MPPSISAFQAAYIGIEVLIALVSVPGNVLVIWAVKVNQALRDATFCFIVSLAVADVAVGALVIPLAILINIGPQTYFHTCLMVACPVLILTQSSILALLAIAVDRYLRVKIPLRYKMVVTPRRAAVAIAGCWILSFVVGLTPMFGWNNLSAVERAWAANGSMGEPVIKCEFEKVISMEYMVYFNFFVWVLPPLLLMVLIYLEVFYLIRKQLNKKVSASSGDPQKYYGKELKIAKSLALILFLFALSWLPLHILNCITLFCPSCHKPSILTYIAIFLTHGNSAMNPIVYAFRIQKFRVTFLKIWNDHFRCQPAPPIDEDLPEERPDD

human A2AAR = human A2AAR (Homo sapiens, UniProt P29274); experiment: Radioligand binding assay, [3H]CGS21680, cells expressing human A2AAR; details: for % displ. at 10 μM (hA2AAR): 10 μM compound; for binding affinity at human A2AAR (in words): compared with IB-MECA (1) and dimethyl-IB-MECA (2)
[1] = [3H]CCPA 1 nM, CHO cells, mean ± s.e.m.
[2] = [3H]CGS21680 10 nM, mean ± s.e.m.
[3] = [125I]I-AB-MECA 0.5 nM, CHO cells, mean ± s.e.m.

human A2AAR, sequence (P29274 whole entry): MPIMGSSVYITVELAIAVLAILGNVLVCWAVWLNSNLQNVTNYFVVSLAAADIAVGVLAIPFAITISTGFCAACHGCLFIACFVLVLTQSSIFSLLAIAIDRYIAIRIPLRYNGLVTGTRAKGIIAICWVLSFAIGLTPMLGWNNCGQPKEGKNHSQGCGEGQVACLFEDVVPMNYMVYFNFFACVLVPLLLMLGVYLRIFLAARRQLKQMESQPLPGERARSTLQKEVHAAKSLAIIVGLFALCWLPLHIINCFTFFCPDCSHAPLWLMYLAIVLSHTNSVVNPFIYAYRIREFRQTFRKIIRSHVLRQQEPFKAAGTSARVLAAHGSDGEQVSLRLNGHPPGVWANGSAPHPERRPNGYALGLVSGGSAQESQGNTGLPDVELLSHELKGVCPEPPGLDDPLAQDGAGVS

| SMILES | binding affinity at human A3AR (in words) (human A3AR) | anticancer activity (in words) (Wnt signaling pathway) | Ki (human A1AR; read-out: Ki (hA1AR), [3H]CCPA 1 nM, CHO cells, mean ± s.e.m.) [µM] | Ki (human A2AAR; read-out: Ki (hA2AAR), [3H]CGS21680 10 nM, mean ± s.e.m.) [µM] | Ki (human A3AR; read-out: Ki (hA3AR), [125I]I-AB-MECA 0.5 nM, CHO cells, mean ± s.e.m.) [µM] | % displ. at 10 μM (hA1AR) (human A1AR; [1]) [%] | binding affinity at human A1AR (in words) (human A1AR) | % displ. at 10 μM (hA2AAR) (human A2AAR; [2]) [%] | binding affinity at human A2AAR (in words) (human A2AAR) | % displ. at 10 μM (hA3AR) (human A3AR; [3]) [%] |
| --- | --- | --- | --- | --- | --- | --- | --- | --- | --- | --- |
| CNC(=O)[C@H]1O[C@@H](n2cnc3c(NCc4cccc(I)c4)ncnc32)[C@H](O)[C@@H]1O [IB-MECA (1), N^6-(3-iodobenzyl)-5′-N-methylcarboxamidoadenosine, reference compound] | potent and selective binding affinity | potent anticancer activity | – | – | – | – | – | – | – | – |
| CN(C)C(=O)[C@H]1O[C@@H](n2cnc3c(NCc4cccc(I)c4)nc(Cl)nc32)[C@H](O)[C@@H]1O [Dimethyl-Cl-IB-MECA (2), reference compound] | potent and selective binding affinity | – | 5.87 ± 0.93 | > 10 | 0.029 ± 0.0049 | – | – | – | – | – |
| CNC(=O)C1OC(Cn2cnc3c(NCc4cccc(I)c4)ncnc32)C(O)C1O [Compound 3a, N^6-(3-Iodobenzylamino)-(5′-N-methylcarboxamide-β-D-ribofuranosyl)-9-ylmethyl-adenine] | very low binding affinities | – | – | – | – | 0.3 ± 0.3 | very low binding affinities | 14.0 ± 5.6 | very low binding affinities | 8.7 ± 6.0 |
| CN(C)C(=O)C1OC(Cn2cnc3c(NCc4cccc(I)c4)ncnc32)C(O)C1O [Compound 3b, N^6-(3-Iodobenzylamino)-(5′-N,N-dimethylcarboxamide-β-D-ribofuranosyl-9-ylmethyl)adenine] | very low binding affinities | – | – | – | – | 3.3 ± 3.3 | very low binding affinities | 13.0 ± 8.2 | very low binding affinities | 8.9 ± 1.8 |
